How the values were obtained:
[1] = system: APP/PS1 transgenic (TgAD) mouse model for AD; assay: Radial arm (8-arm) maze test in TgAD mice; assay type: in vivo
Method: Next, the effect of clomipramine was tested in an in vivo mouse model of AD. For this, Amyloid Precursor Protein (APP)/Presenillin 1 (PS1) transgenic (TgAD) mouse model for AD (strain name B6C3-Tg APPswe, PSEN1dE9 85Dboa; stock number 004462) was used. Wild type and transgenic (TgAD) mice were genotyped using genomic DNA isolated from mouse tail and PCR primers according to the Jackson laboratory protocol. Clomipramine hydrochloride, obtained from Sigma (C-7291), was dissolved in ultrapure MQ just before the injection and 100 μl of this solution was injected intraperitonially (I.P.injections) to each mouse of 23-25 g in weight (25 mg/kg body weight) for 45 days. […]
For radial arm (8-arm) maze test, mice were given restricted amount of food until their bodyweight reduced to 85% of the initial weight for two days prior to habituation in the maze. […] On the test day, all arms were opened and same five arms were baited as in trial sessions and their series of entries were recorded manually (Miyakawa, Yamada et al. 2001), from which the percentage of working and reference memory errors were calculated. The mouse entering an arm containing food where it had previously entered, was counted as working memory error (short term memory) and if the mouse entered in an arm without bait, was counted as reference memory error (long term memory for position of the baited arms). […]

[2] = system: AD transgenic mouse model (Tg) cortical neurons; assay: Western blot of cortical neuron lysate from AD transgenic mouse model (Tg) treated with clomipramine; assay type: cell-based; details: Western blot (FIG. 2A)
Excerpt: The effect of clomipramine on cell cycle related neuronal apoptosis (CRNA) was also explored in AD transgenic mouse model (Tg) cortical neurons (in this mouse model, there is an increased production of Aβ42 which induces neurodegeneration similar to AD patients).

[3] = Tolerability of chronic clomipramine treatment in WT/TgAD mice; assay type: in vivo, mouse
Method: (§1) Next, the effect of clomipramine was tested in an in vivo mouse model of AD. For this, Amyloid Precursor Protein (APP)/Presenillin 1 (PS1) transgenic (TgAD) mouse model for AD (strain name B6C3-Tg APPswe, PSEN1dE9 85Dboa; stock number 004462) was used. Wild type and transgenic (TgAD) mice were genotyped using genomic DNA isolated from mouse tail and PCR primers according to the Jackson laboratory protocol. Clomipramine hydrochloride, obtained from Sigma (C-7291), was dissolved in ultrapure MQ just before the injection and 100 μl of this solution was injected intraperitonially (I.P.injections) to each mouse of 23-25 g in weight (25 mg/kg body weight) for 45 days. Various behaviour tests (Morris water maze, Y-maze and Radial arm maze) were performed on clomipramine/saline injected mice.
Radial arm maze test was also performed to assess the long term as well as short term memory of mice (Penley, Gaudet et al. 2013, Fredriksson, Sreedharan et al. 2019). For this purpose, the 24 h food deprived mice were placed on the central platform of 8-arm maze and allowed to explore the maze for food (bait) placed at the end of each arm as depicted in FIG. 8A. Each training/testing session was 10 min long. […] TgAD mice group committed more reference and working memory errors than WT.

[4] = system: APP/PS1 transgenic (TgAD) mouse model for AD; assay: Morris water maze test in TgAD mice; assay type: in vivo; details: 25 mg/kg I.P. for 45 days
Method: as §1
For Morris water maze test, animals were subjected to three trials per session and one session a day, for five days. Each trial was for 60 s in which mice had to reach the hidden platform in the water, and the average time per session was recorded as escape latency. After the escape training, the platform was removed for the probe trial test. It tested the retention of spatial memory at 24 h after training (Vorhees and Williams 2006, Nunez 2008). The number of times a mouse crossed the probe, the time spent in the target quadrant, and swim speed were recorded using ANY-maze software (Stoelting Co., USA).
For in vivo studies, ˜6 months old WT/TgAD mice were intraperitonially injected with 25 mg/kg body weight of clomipramine for 45 days (FIG. 4A) and subjected to various behavior tests. […] After five days of training, probe trial was performed and observed that WT mice spent […] time searching for the platform in the area of previous location (target quadrant) than the TgAD reflected by FIG. 5B. […] These observations indicate improved spatial learning in TgAD mice upon clomipramine treatment.

TAp73 = assay: Immunoprecipitation of TAp73 and ubiquitination blot in presence of proteasome inhibitor MG132; assay type: cell-based, rat; details: TAp73 immunoprecipitated in presence of MG132 (FIG. 2B)
TgAD cortex = assay: Western blot of cortex region of brain of clomipramine-treated TgAD mice; assay type: in vivo, mouse
Method: The animals used in the above-mentioned behavioral tests were euthanized and cortex region of brain was dissected out for biochemical analysis. The levels of Itch, TAp73, PCNA and cleaved caspase-3 were determined with Western blotting (FIG. 9A). FIGS. 9B-9F show the quantification of the levels of Itch, TAp73, PCNA and cleaved caspase-3 of the Western blot of FIG. 9A. After analysis of six animals from each group, it was observed that TAp73 protein levels, which were reduced in TgAD cortex, were much higher in clomipramine treated TgAD brains. […] Importantly, CRNA which is exacerbated in TgAD cortex was reversed in clomipramine-treated mice as indicated by decrease in PCNA and cleaved caspase 3 (FIG. 9A).

[5] = system: APP/PS1 transgenic (TgAD) mouse model for AD; assay: Y-maze test in TgAD mice; assay type: in vivo
Method: as §1
For Y-Maze test, animals were habituated in the Y-shaped maze for 3 min with one of the arms blocked then their spontaneous alternations were recorded with all arms open for 5 min (Miedel, Patton et al. 2017). The number of alternations was recorded manually and percent spontaneous alternations were calculated as mentioned below: […]
Y-maze test is an initial test of memory function. […] The memory function was tested when the animal was returned to the maze with all arms open and the tendency to spend time in the new or familiar arms was monitored.

[6] = system: Aβ42 treated cortical neurons; assay: BrdU incorporation / TUNEL labelling of Aβ42-treated cortical neurons; assay type: cell-based, rat
Method: Subsequently, BrdU incorporation and TUNEL labelling was performed to detect DNA replication and apoptosis, respectively. […] These findings indicate that clomipramine inhibits CRNA in AD neurons by preventing TAp73 degradation.
To another set of cells, BrdU was added after 48 h to label the neurons undergoing the replication (cell cycle re-entry). After that TUNEL assay was performed to label the cells undergoing apoptosis (FIG. 3G). The number of double positive cells were scored and plotted in the graph (FIG. 3H).

[7] = system: Aβ42-treated cortical neurons; assay: Western blot of lysates of Aβ42-treated rat cortical neurons treated with clomipramine; assay type: cell-based; details: for cell cycle related neuronal apoptosis by immunoblotting (PCNA, cleaved caspase-3): 48 h (FIGS. 3D-3F)
Excerpt: The effect of clomipramine on cell cycle related neuronal apoptosis (CRNA) was investigated in Aβ42-treated cortical neurons (Aβ42 peptide induces neurodegeneration in AD patients). The TAp73 levels were restored upon clomipramine treatment (FIG. 1A). […] FIGS. 1B, 1C, and 1D show the quantification of TAp73, PCNA, and cleaved caspase-3 levels of the Western blot of FIG. 1A.
To determine an effective concentration of clomipramine, Aβ42 treated rat cortical neurons were subjected to different concentrations (10 nM to 100 nM) of clomipramine for 48 h. Lysates were prepared and immunoblotting was performed.
After 48 h, one set of cells were lysed, lysates were prepared and the lysates were subjected to immunoblotting.

[8] = 4 groups of mice treated with clomipramine and saline, 25 mg/kg I.P. 45 days
[9] = TgAD mice, 25 mg/kg I.P. 45 days (FIG. 9A)

CN(C)CCCN1c2ccccc2CCc2ccc(Cl)cc21 [clomipramine]
Radial arm maze reference memory errors (long term memory) ([1]; 25 mg/kg I.P. for 45 days (FIG. 8B)): significant improvement | Radial arm maze working memory errors (short term memory) ([1]; 25 mg/kg I.P. for 45 days (FIG. 8C)): significant improvement | PCNA (cell cycle re-entry) [2]: significant decrease | TAp73 levels [2]: restored | cleaved caspase 3 (apoptosis) [2]: significant decrease | food intake [3, 8]: No significant differences | water intake [3, 8]: No significant differences | side effects of chronic treatment ([3]; mice, 25 mg/kg I.P. for 45 days): no major side effects | swimming speed ([3]; wild-type mice, clomipramine vs saline (FIG. 6A), p>0.05): almost unchanged | body weight ([3]; wild-type mice, clomipramine vs saline (FIG. 6B), p>0.05): almost unchanged | learning and memory abilities ([3]; wild-type mice, clomipramine vs saline, p>0.05): almost unchanged | Morris water maze: time to reach the hidden platform (escape latency) ([4]; five days of training (FIG. 4B)): marked improvement | Morris water maze: escape latency on the last day of training ([4]; last day (FIGS. 4B, 4C, 5A)): almost similar to the WT mice | Morris water maze probe trial: crossing of target quadrant area ([4]; platform removed (FIG. 5B)): more frequently, almost similar to WT mice | ubiquitination of TAp73 (TAp73): less ubiquitination of TAp73 | TAp73 protein levels in cortex (TgAD cortex; TgAD brains, 25 mg/kg I.P. 45 days, six animals per group (FIGS. 9A, 9B)): much higher | PCNA in cortex (CRNA) (TgAD cortex; [9]): decrease | cleaved caspase 3 in cortex (CRNA) (TgAD cortex; [9]): decrease | Y-maze spontaneous alternation ([5]; TgAD mice, 25 mg/kg I.P. for 45 days, compared to TgAD): improvement of spontaneous alternation | Y-maze total number of arm entries ([5]; all groups, 25 mg/kg I.P. for 45 days (FIG. 7C)): no significant changes | BrdU/TUNEL double positive cells (CRNA) ([6]; 75 nM compared with 100 nM clomipramine, 48 h (FIGS. 3G, 3H)): more potent in preventing CRNA | BrdU+/TUNEL+ cells (CRNA) ([6]; Aβ42 treated cortical neurons (FIGS. 3A, 3B)): significant reduction | cell cycle related neuronal apoptosis by immunoblotting (PCNA, cleaved caspase-3) ([7]; 75 nM clomipramine): effective in reducing cell cycle related neuronalapoptosis | TAp73 levels ([7]; 75 nM clomipramine, 48 h, tested 10 nM to 100 nM (FIG. 3C)): restoration in TAp73 levels was observed | cell cycle related neuronal apoptosis by immunoblotting (PCNA, cleaved caspase-3) ([7]; 100 nM clomipramine): more apoptosis was observed | TAp73 levels ([7]; 100 nM clomipramine, 48 h, tested 10 nM to 100 nM (FIG. 3C)): restoration in TAp73 levels was observed | TAp73 levels ([7]; Aβ42-treated cortical neurons, Western blot (FIG. 1A, 1B)): restored | PCNA (cell cycle re-entry) ([7]; Aβ42-treated cortical neurons, Western blot (FIG. 1A, 1C)): significant decrease | cleaved caspase 3 (apoptosis) ([7]; Aβ42-treated cortical neurons, Western blot (FIG. 1A, 1D)): significant decrease
